According to ChEMBL document CHEMBL5236565, “Design, synthesis, and biological evaluation of novel 2'-methyl-2'-fluoro-6-methyl-7-alkynyl-7-deazapurine nucleoside analogs as anti-Zika virus agents” (Eur J Med Chem, 2022):
Calls of active or inactive are those of the source. The calls are words filed in the database; no cut-off is given here.

Key:
Zika virus [1] = test: Antiviral activity against ZIKV infected in human A549 cells at 50 uM by microtiter assay relative to control; assay type: functional
A549 [2] = test: Cytotoxicity against human A549 cells assessed as cell growth inhibition measured after 24 hrs by MTT assay; assay type: functional
Zika virus [3] = test: Antiviral activity against ZIKV ZG-01 infected in human A549 cells assessed as reduction in viral induced cytopathic effect by measuring reduction in PFU measured after 4 days by neutral red staining based plaque assay; assay type: functional, organism-based; conditions: ZG-01, A549, 96 h; for EC90: time 4 day
Zika virus [4] = test: Antiviral activity against ZIKV ZG-01 infected in African green monkey Vero cells assessed as reduction in viral induced cytopathic effect by measuring reduction in PFU measured after 4 days by neutral red staining based plaque assay; assay type: functional, organism-based; conditions: ZG-01, Vero, 96 h
Zika virus [5] = test: Antiviral activity against ZIKV MR766 infected in human SNB-19 cells assessed as reduction in viral induced cytopathic effect by measuring reduction in PFU measured after 4 days by neutral red staining based plaque assay; assay type: functional, organism-based; conditions: MR766, SNB-19, 96 h
Zika virus [6] = test: Antiviral activity against ZIKV MR766 infected in African green monkey Vero cells assessed as reduction in viral induced cytopathic effect by measuring reduction in PFU measured after 4 days by neutral red staining based plaque assay; assay type: functional, organism-based; conditions: 96 h
Zika virus [7] = test: Antiviral activity against ZIKV ZG-01 infected in human Huh-7 cells assessed as reduction in viral induced cytopathic effect by measuring reduction in PFU measured after 4 days by neutral red staining based plaque assay; assay type: functional, organism-based; conditions: ZG-01, Huh-7, 96 h
Huh-7 = test: Cytotoxicity against human Huh-7 cells assessed as cell growth inhibition measured after 24 hrs by MTT assay; assay type: functional
Zika virus [8] = test: Antiviral activity against ZIKV MR766 infected in human Huh-7 cells assessed as reduction in viral induced cytopathic effect by measuring reduction in PFU measured after 4 days by neutral red staining based plaque assay; assay type: functional, organism-based; conditions: MR766, Huh-7, 96 h
A549 [9] = test: Downregulation of ZIKV E protein cleaved caspase 3 expression in human A549 cells at 5 to 25 uM by immunofluorescence analysis; assay type: functional, cell-based; conditions: dose 5-25 µM
[10] = Cytotoxicity against African green monkey Vero cells assessed as cell growth inhibition measured after 24 hrs by MTT assay; assay type: toxicity, cell-based; conditions: chlorocebus sabaeus
Zika virus [11] = test: Antiviral activity against ZIKV ZG-01 infected in human SNB-19 cells assessed as reduction in viral induced cytopathic effect by measuring reduction in PFU measured after 4 days by neutral red staining based plaque assay; assay type: functional, organism-based; conditions: ZG-01, SNB-19, 96 h
Zika virus [12] = test: Antiviral activity against ZIKV MR766 infected in human A549 cells assessed as reduction in viral induced cytopathic effect by measuring reduction in PFU measured after 4 days by neutral red staining based plaque assay; assay type: functional, organism-based; conditions: MR766, A549, 96 h
A549 [13] = test: Downregulation of ZIKV E protein cleaved caspase 3 expression in human A549 cells at 10 to 50 uM measured after 48 hrs by Western blotting analysis; assay type: functional, cell-based; conditions: dose 10-50 µM
Vero = test: Downregulation of ZIKV E protein cleaved caspase 3 expression in African green monkey Vero cells at 10 to 50 uM measured after 48 hrs by Western blotting analysis; assay type: functional, cell-based; conditions: Chlorocebus sabaeus, dose 10-50 µM
SNB-19 = test: Cytotoxicity against human SNB-19 cells assessed as cell growth inhibition measured after 24 hrs by MTT assay; assay type: functional

| SMILES | Activity (Zika virus [1]) [%] | CC50 (A549 [2]) [µM] | EC50 (Zika virus [3]) [µM] | EC90 (Zika virus [3]) [µM] | further results |
| --- | --- | --- | --- | --- | --- |
| Cc1ncnc2c1c(C#Cc1nccs1)cn2[C@@H]1O[C@H](CO)[C@@H](O)[C@@]1(C)F | <10 | – | – | – | – |
| Cc1ncnc2c1c(-c1ccccc1)cn2[C@@H]1O[C@H](CO)[C@@H](O)[C@@]1(C)F | <10 | – | – | – | – |
| CCOC(=O)c1ccc(C#Cc2cn([C@@H]3O[C@H](CO)[C@@H](O)[C@@]3(C)F)c3ncnc(C)c23)s1 | >90 | > 50 | 39.8 | > 50 | – |
| NC(=O)c1ncn([C@@H]2O[C@H](CO)[C@@H](O)[C@H]2O)n1 [RIBAVIRIN] | – | > 50 | 36.1 | 70.3 | EC50 (Zika virus [4]): > 80 µM; EC90 (Zika virus [4]; time 4 day): > 80 µM; EC50 (Zika virus [5]): > 80 µM; EC90 (Zika virus [5]; time 4 day): > 80 µM; EC50 (Zika virus [6]): > 80 µM; EC90 (Zika virus [6]; time 4 day): > 80 µM; EC50 (Zika virus [7]): 14.1 µM; EC90 (Zika virus [7]; time 4 day): 47.4 µM; CC50 (Huh-7): 513 µM; EC50 (Zika virus [8]): 17.7 µM; EC90 (Zika virus [8]; time 4 day): 51 µM; Activity (A549 [9]): inactive; CC50 at 24 h [10]: 470 µM; EC50 (Zika virus [11]): > 80 µM; EC90 (Zika virus [11]; time 4 day): > 80 µM; EC50 (Zika virus [12]): 38.1 µM; EC90 (Zika virus [12]; time 4 day): 75.9 µM; Activity (A549 [13]): inactive; Activity (Vero): inactive; CC50 (SNB-19): 485 µM |
| Cc1ncnc2c1c(C1CC1c1ccccc1)cn2[C@@H]1O[C@H](CO)[C@@H](O)[C@@]1(C)F (some centres not stated) | <10 | – | – | – | – |
| C#Cc1cn([C@@H]2O[C@H](CO)[C@@H](O)[C@@]2(C)F)c2ncnc(C)c12 | <10 | – | – | – | – |
| Cc1ncnc2c1c(C#Cc1cccc(F)c1)cn2[C@@H]1O[C@H](CO)[C@@H](O)[C@@]1(C)F | <10 | – | – | – | – |
| Cc1ncnc2c1c(C#Cc1ccccc1)cn2[C@@H]1O[C@H](CO)[C@@H](O)[C@@]1(C)F | – | > 50 | 13.8 | 33.6 | – |
| Cc1ncnc2c1c(-n1cc(-c3ccccc3)nn1)cn2[C@@H]1O[C@H](CO)[C@@H](O)[C@@]1(C)F | <10 | – | – | – | – |
| COCc1ccccc1C#Cc1cn([C@@H]2O[C@H](CO)[C@@H](O)[C@@]2(C)F)c2ncnc(C)c12 | >90 | > 50 | 13.5 | > 50 | – |
| Cc1ncnc2c1c(C#Cc1cccnc1)cn2[C@@H]1O[C@H](CO)[C@@H](O)[C@@]1(C)F | <10 | – | – | – | – |
| Cc1ncnc2c1c(-c1ccc(-c3ccccc3)cc1)cn2[C@@H]1O[C@H](CO)[C@@H](O)[C@@]1(C)F | 29.9 | – | – | – | – |
| Cc1ncnc2c1c(/C=C/c1ccccc1)cn2[C@@H]1O[C@H](CO)[C@@H](O)[C@@]1(C)F | <10 | – | – | – | – |
| Cc1ncnc2c1c(C#Cc1ccccc1F)cn2[C@@H]1O[C@H](CO)[C@@H](O)[C@@]1(C)F | >90 | > 50 | 4.9 | 19.7 | – |
| Cc1ncnc2c1c(C#Cc1ccccn1)cn2[C@@H]1O[C@H](CO)[C@@H](O)[C@@]1(C)F | 18.8 | – | – | – | – |
| CC#Cc1cn([C@@H]2O[C@H](CO)[C@@H](O)[C@@]2(C)F)c2ncnc(C)c12 | <10 | – | – | – | – |
| COc1cccc(C#Cc2cn([C@@H]3O[C@H](CO)[C@@H](O)[C@@]3(C)F)c3ncnc(C)c23)c1 | >90 | > 50 | 14.8 | 40.4 | – |
| Cc1cccc(C#Cc2cn([C@@H]3O[C@H](CO)[C@@H](O)[C@@]3(C)F)c3ncnc(C)c23)n1 | <10 | – | – | – | – |
| COc1ccc(C#Cc2cn([C@@H]3O[C@H](CO)[C@@H](O)[C@@]3(C)F)c3ncnc(C)c23)cc1 | >90 | > 50 | 11.8 | 40.7 | – |
| COc1ccccc1C#Cc1cn([C@@H]2O[C@H](CO)[C@@H](O)[C@@]2(C)F)c2ncnc(C)c12 | >90 | > 50 | 40.3 | > 50 | – |
